The results in this text go back to patent publication US7253198B2, “Hydroxyethylamine derivatives for the treatment of Alzheimer's disease” (Glaxo Group Limited, priority 2002, dated 2007).

Sequence of Asp-2 (P56817 46-501): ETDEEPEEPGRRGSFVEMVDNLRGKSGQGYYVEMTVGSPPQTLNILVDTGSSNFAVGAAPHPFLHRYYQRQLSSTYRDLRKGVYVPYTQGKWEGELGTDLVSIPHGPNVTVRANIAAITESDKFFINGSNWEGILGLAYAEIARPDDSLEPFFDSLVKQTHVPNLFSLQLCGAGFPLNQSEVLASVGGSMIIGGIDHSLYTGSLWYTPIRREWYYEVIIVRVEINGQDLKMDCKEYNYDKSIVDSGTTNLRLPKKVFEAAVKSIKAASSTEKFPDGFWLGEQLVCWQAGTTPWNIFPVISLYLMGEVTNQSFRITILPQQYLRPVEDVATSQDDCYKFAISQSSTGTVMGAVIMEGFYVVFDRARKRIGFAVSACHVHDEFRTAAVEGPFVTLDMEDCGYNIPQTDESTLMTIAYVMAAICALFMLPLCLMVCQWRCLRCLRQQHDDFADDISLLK

In one experiment the target is Asp-2 (Homo sapiens, UniProt P56817). The experiment in a line: Asp-2 Inhibitory Assay. The settings on record: Assay (I), FAM-SEVNLDAEFK-TAMRA substrate, pH 4.5; read-out: inhibition (Asp-2). Type of experiment: biochemical. On the procedure:
(I) Asp-2 Inhibitory Assay
This is prepared by diluting 2 ml of a 2 mM DMSO solution of the substrate into 400 ml of buffer (100 mM Sodium acetate pH=4.5, 1 l Milli-Q water, 0.06% Triton X-100 (0.5 ml/l), pH adjusted to 4.5 using glacial acetic acid). […] This is prepared by diluting 16 ml of a 500 nM enzyme solution into 384 ml of buffer (prepared as above).
Blank wells (enzyme solution replaced by buffer) are included as controls on each plate.
As for `C[C@H](NC[C@@H](O)[C@H](Cc1ccccc1)NC(=O)c1cc(C2CCCC2)cc(N2CCCC2=O)c1)C(=O)NC1CCCCC1` [Example E12, N-[(1S,2R)-1-Benzyl-3-((S)-1-cyclohexylcarbamoylethylamino)-2-hydroxypropyl]-3-cyclopentyl-5-(2-oxopyrrolidin-1-yl)benzamide], the IC50 fell in the range of 1 to 50 nM.
The same measure, in the same setting: the figure for `O=C(NC(Cc1ccccc1)C(O)CNCc1cccc(C(F)(F)F)c1)c1cc(C2CCCC2)cc(N2CCCC2=O)c1` (centres unmarked) [Example E22, N-[1-Benzyl-2-hydroxy-3-(3-trifluoromethylbenzylamino)propyl]-3-cyclopentyl-5-(2-oxopyrrolidin-1-yl)benzamide] is 1 to 50 nM; for `CCCCCNc1cc(C(=O)N[C@@H](Cc2ccccc2)[C@H](O)CN[C@@H](C)C(=O)NC2CCCCC2)cc(N2CCCC2=O)c1` [Example E54, N-[(1S,2R)-1-Benzyl-3-((S)-1-cyclohexylcarbamoylethylamino)-2-hydroxypropyl]-3-(2-oxopyrrolidin-1-yl)-5-pentylaminobenzamide] it is 1 to 50 nM.
As for `CCC(CC)Nc1cc(C(=O)N[C@@H](Cc2ccccc2)[C@H](O)CN[C@@H](C)C(=O)NC2CCCCC2)cc(N2CCCC2=O)c1` [Example E55, N-[(1S,2R)-1-Benzyl-3-((S)-1-cyclohexylcarbamoylethylamino)-2-hydroxypropyl]-3-(1-ethylpropylamino)-5-(2-oxopyrrolidin-1-yl)benzamide], the IC50 is 1 to 50 nM.
In the case of `CCCCNc1cc(C(=O)N[C@@H](Cc2ccccc2)[C@H](O)CN[C@@H](C)C(=O)NC2CCCCC2)cc(N2CCCC2=O)c1` [Example E56, N-[(1S,2R)-1-Benzyl-3-((S)-1-cyclohexylcarbamoylethylamino)-2-hydroxypropyl]-3-butylamino-5-(2-oxopyrrolidin-1-yl)benzamide], the IC50 is 1 to 50 nM.
On to `CC(C)CCCC(C)NC[C@@H](O)[C@H](Cc1ccccc1)NC(=O)c1cc(NC(C)C)cc(N2CCCC2=O)c1` (stereo partly drawn) [Example E60, N-[(1S,2R)-1-Benzyl-3-(1,5-dimethylhexylamino)-2-hydroxypropyl]-3-isopropylamino-5-(2-oxopyrrolidin-1-yl)benzamide], for which the IC50 was 1 to 50 nM.
As to `CCCC[C@H](NC[C@@H](O)[C@H](Cc1ccccc1)NC(=O)c1cc(OC(C)C)cc(N2CCCC2=O)c1)C(=O)NCC(C)C` [Example E179, N-[(1S,2R)-1-Benzyl-2-hydroxy-3-((S)-1-isobutylcarbamoyl-pentylamino)-propyl]-3-isopropoxy-5-(2-oxopyrrolidin-1-yl)benzamide], the IC50 fell in the range of 1 to 50 nM.

Still in this experiment, the particulars now being: inhibition (Asp-2), Assay (I), FAM-SEVNLDAEFK-TAMRA substrate, pH 4.5.
The compound `CCNc1cc(C(=O)N[C@@H](Cc2ccccc2)[C@H](O)CNCc2cccc(OC(F)(F)F)c2)cc(N2CCCC2=O)c1` [Example E86, N-[(1S,2R)-1-Benzyl-2-hydroxy-3-(3-trifluoromethoxybenzylamino)-propyl]-3-ethylamino-5-(2-oxopyrrolidin-1-yl)benzamide] returned an IC50 of 1 to 50 nM.
